Assay [1] deals with RAW264.7. Put plainly: cytotoxicity (LDH release relative to maximum lysis); higher = more toxic. To be noted: 50 µM; 2 h. On the technique in general: LDH leaks from cells whose membrane has failed.
Assay [2] relates to Salmonella enterica serovar Typhimurium SL1344. Put plainly: intracellular MIC (10-fold luminescence reduction); higher = less potent. The following applies: RAW264.7 macrophages.
Assay [3] has the same test system.

The values below come from the supplement of paper PMC6331611.

Converted amounts (≈) assume the structure as drawn. Counter-ions that a name gives are not always drawn.

For orientation: MIC means the lowest concentration found to suppress growth. `CCCCCCCCCCCCCCCC[n+]1ccccc1` [CETYLPYRIDINIUM CHLORIDE] gave a cytotoxicity in assay [1] of 63%. Further, the “intracellular MIC” value in assay [2] is at most 0.78 µM. The values for the MIC in assay [3] (LPM pH 5.8), in assay [3] (MHB) and in assay [3] (MOPS glucose minimal medium) were 12.5 µM, 50 µM and 12.5 µM, respectively.

`O=C(O)CCC(=O)OC[C@@H](NC(=O)C(Cl)Cl)[C@H](O)c1ccc([N+](=O)[O-])cc1` [CHLORAMPHENICOL SODIUM SUCCINATE]: the cytotoxicity in assay [1] amounted to 8.03%. For the same compound, in assay [2], the “intracellular MIC” value is at most 0.78 µM. The MIC in assay [3] (LPM pH 5.8) is 6.25 µM; in assay [3] (MHB), 25 µM; in assay [3] (MOPS glucose minimal medium) it was 12.5 µM.

For `O=C(N[C@H](CO)[C@H](O)c1ccc([N+](=O)[O-])cc1)C(Cl)Cl` [CHLORAMPHENICOL], in assay [1], the cytotoxicity came out at 8.21%. In assay [2], the “intracellular MIC” value was at most 0.78 µM. Also, the figures for the MIC in assay [3] (LPM pH 5.8), in assay [3] (MHB) and in assay [3] (MOPS glucose minimal medium) were at most 0.78 µM, 12.5 µM (≈ 4.04 µg/mL) and 3.13 µM (≈ 1.01 µg/mL), respectively.

For the compound `Cc1nc2ccccc2n1Cc1ccc(Cl)cc1` [CHLORMIDAZOLE], the cytotoxicity in assay [1] came to 12.9%. The “intracellular MIC” value in assay [2] is at most 0.78 µM. Besides, the MIC in assay [3] (LPM pH 5.8), in assay [3] (MHB) and in assay [3] (MOPS glucose minimal medium) was above 50 µM each time.

As to `CC(C)NC(=N)NC(=N)Nc1ccc(Cl)cc1` [CHLOROGUANIDE HYDROCHLORIDE], the cytotoxicity in assay [1] was determined as 6.72%. In assay [2], the “intracellular MIC” value is above 50 µM. For the same compound, the MIC in assay [3] (LPM pH 5.8), in assay [3] (MHB) and in assay [3] (MOPS glucose minimal medium) was above 50 µM in each case.

Compound `Oc1c(Cl)cc(Cl)c2cccnc12` [CHLOROXINE] had a cytotoxicity in assay [1] of 20.5%. The “intracellular MIC” value in assay [2] was above 50 µM. The MIC in assay [3] (LPM pH 5.8) was at most 0.78 µM; in assay [3] (MHB), 25 µM (≈ 5.35 µg/mL); in assay [3] (MOPS glucose minimal medium), 25 µM (≈ 5.35 µg/mL).

In assay [1], `CN(C)[C@@H]1C(O)=C(C(N)=O)C(=O)[C@@]2(O)C(O)=C3C(=O)c4c(O)ccc(Cl)c4[C@@](C)(O)[C@H]3C[C@@H]12` [CHLORTETRACYCLINE HYDROCHLORIDE] returned a cytotoxicity of 8.37%. For the same compound, the “intracellular MIC” value in assay [2] was at most 0.78 µM. Further, the MIC in assay [3] (LPM pH 5.8) was at most 0.78 µM; in assay [3] (MHB), 25 µM; in assay [3] (MOPS glucose minimal medium) it was 6.25 µM.

As to `Cc1cc(C2CCCCC2)n(O)c(=O)c1` [CICLOPIROX OLAMINE], the cytotoxicity in assay [1] was determined as 15.5%. In addition, the “intracellular MIC” value in assay [2] was above 50 µM. The MIC in assay [3] (LPM pH 5.8) was at most 0.78 µM; in assay [3] (MHB), above 50 µM; in assay [3] (MOPS glucose minimal medium) it was above 50 µM.

The compound `CCn1nc(C(=O)O)c(=O)c2cc3c(cc21)OCO3` [CINOXACIN] came in with a cytotoxicity in assay [1] of 8.11%. Also, the “intracellular MIC” value in assay [2] is at most 0.78 µM. Also, the MIC in assay [3] (LPM pH 5.8) is at most 0.78 µM; in assay [3] (MHB), above 50 µM; in assay [3] (MOPS glucose minimal medium), above 50 µM.

`O=C(O)c1cn(C2CC2)c2cc(N3CCNCC3)c(F)cc2c1=O` [CIPROFLOXACIN] came in with a cytotoxicity in assay [1] of 21.5%. Further, in assay [2], the “intracellular MIC” value was at most 0.78 µM. The MIC in assay [3] (LPM pH 5.8) is above 50 µM; in assay [3] (MOPS glucose minimal medium) it was at most 0.78 µM.

`NC1CCN(c2c(F)cc3c(=O)c(C(=O)O)cn(C4CC4)c3c2Cl)C1` (centres undefined) [CLINAFOXACIN HYDROCHLORIDE] returned a cytotoxicity in assay [1] of 15.8%. For the same compound, in assay [2], the “intracellular MIC” value is at most 0.78 µM. Besides, the MIC in assay [3] (LPM pH 5.8), in assay [3] (MHB) and in assay [3] (MOPS glucose minimal medium) was at most 0.78 µM in each case.

On to `Oc1c(I)cc(Cl)c2cccnc12` [CLIOQUINOL], for which the cytotoxicity in assay [1] is 20%. In addition, the “intracellular MIC” value in assay [2] was above 50 µM. For the same compound, the results for the MIC in assay [3] (LPM pH 5.8), in assay [3] (MHB) and in assay [3] (MOPS glucose minimal medium) were at most 0.78 µM, 50 µM (≈ 15.3 µg/mL) and 50 µM (≈ 15.3 µg/mL), respectively.

On to `O=S(=O)(O)NC1CCCCC1` [CYCLAMIC ACID], for which the cytotoxicity in assay [1] was determined as 7.97%. Besides, in assay [2], the “intracellular MIC” value is above 50 µM. The MIC in assay [3] (LPM pH 5.8), in assay [3] (MHB) and in assay [3] (MOPS glucose minimal medium) was above 50 µM throughout.

In assay [1], `CN1CCC(=C2c3ccccc3C=Cc3ccccc32)CC1` [CYPROHEPTADINE HYDROCHLORIDE] returned a cytotoxicity of 6.22%. Besides, in assay [2], the “intracellular MIC” value is above 50 µM. The MIC in assay [3] (LPM pH 5.8), in assay [3] (MHB) and in assay [3] (MOPS glucose minimal medium) was above 50 µM throughout.

For `CN(C)[C@@H]1C(O)=C(C(N)=O)C(=O)[C@@]2(O)C(O)=C3C(=O)c4c(O)ccc(Cl)c4[C@@H](O)[C@H]3C[C@@H]12` [DEMECLOCYCLINE HYDROCHLORIDE], the cytotoxicity in assay [1] stood at 8.71%. Also, the “intracellular MIC” value in assay [2] was at most 0.78 µM. The MIC in assay [3] (LPM pH 5.8) is at most 0.78 µM; in assay [3] (MHB), 6.25 µM; in assay [3] (MOPS glucose minimal medium), 1.56 µM.

Compound `CN(C)CC(c1ccc(O)cc1)C1(O)CCCCC1` (centres undefined) [DESVENLAFAXINE SUCCINATE] showed a cytotoxicity in assay [1] of 8.25%. The “intracellular MIC” value in assay [2] is 25 µM. Besides, the MIC in assay [3] (LPM pH 5.8), in assay [3] (MHB) and in assay [3] (MOPS glucose minimal medium) was above 50 µM throughout.

The compound `COc1ccc(Cc2cnc(N)nc2N)cc1OC` [DIAVERIDINE] displayed a cytotoxicity in assay [1] of 6.9%. The “intracellular MIC” value in assay [2] turned out to be 1.56 µM. Besides, the MIC came to 50 µM (≈ 13 µg/mL) in assay [3] (LPM pH 5.8), 1.56 µM (≈ 0.406 µg/mL) in assay [3] (MHB) and 6.25 µM (≈ 1.63 µg/mL) in assay [3] (MOPS glucose minimal medium).

`CN1CCN(c2cc3c(cc2F)c(=O)c(C(=O)O)cn3-c2ccc(F)cc2)CC1` [DIFLOXACIN HYDROCHLORIDE] came in with a cytotoxicity in assay [1] of 6.88%. Besides, the “intracellular MIC” value in assay [2] came to 1.56 µM. For the same compound, the MIC in assay [3] (LPM pH 5.8), in assay [3] (MHB) and in assay [3] (MOPS glucose minimal medium) was at most 0.78 µM throughout.

Take `C[C@H]1O[C@@H](n2cc(F)c(=O)[nH]c2=O)[C@H](O)[C@@H]1O` [DOXIFLURIDINE]: in assay [1], the cytotoxicity was determined as 13%. Moreover, the “intracellular MIC” value in assay [2] stood at 6.25 µM. Further, the MIC in assay [3] (LPM pH 5.8) was at most 0.78 µM; in assay [3] (MHB) it was above 50 µM; in assay [3] (MOPS glucose minimal medium), 1.56 µM (≈ 0.384 µg/mL).

Turning to `C[C@H]1c2cccc(O)c2C(=O)C2=C(O)[C@]3(O)C(=O)C(C(N)=O)=C(O)[C@@H](N(C)C)[C@@H]3[C@@H](O)[C@@H]21` [DOXYCYCLINE HYDROCHLORIDE], in assay [1], the cytotoxicity is 8.01%. Moreover, the “intracellular MIC” value in assay [2] is at most 0.78 µM. Besides, the MIC worked out at 1.56 µM in assay [3] (LPM pH 5.8), 6.25 µM in assay [3] (MHB) and 6.25 µM in assay [3] (MOPS glucose minimal medium).

Consider `O.O.O=C([O-])CN(CCN(CC(=O)[O-])CC(=O)O)CC(=O)O.[Na+].[Na+]` [EDETATE DISODIUM], for which the cytotoxicity in assay [1] stood at 19.1%. Besides, the “intracellular MIC” value in assay [2] is above 50 µM. For the same compound, the MIC was above 50 µM in assay [3] (LPM pH 5.8), above 50 µM in assay [3] (MHB) and 50 µM in assay [3] (MOPS glucose minimal medium).

On to `CCn1cc(C(=O)O)c(=O)c2cc(F)c(N3CCNCC3)nc21` [ENOXACIN], for which, in assay [1], the cytotoxicity turned out to be 20.8%. Besides, the “intracellular MIC” value in assay [2] came to 3.13 µM. For the same compound, the MIC in assay [3] (LPM pH 5.8) was 6.25 µM (≈ 2 µg/mL); in assay [3] (MHB) it was at most 0.78 µM; in assay [3] (MOPS glucose minimal medium), at most 0.78 µM.

The compound `CC[C@H]1OC(=O)[C@H](C)[C@@H](O[C@H]2C[C@@](C)(OC)[C@@H](O)[C@H](C)O2)[C@H](C)[C@@H](O[C@@H]2O[C@H](C)C[C@H](N(C)C)[C@H]2O)[C@](C)(O)C[C@@H](C)C(=O)[C@H](C)[C@@H](O)[C@]1(C)O` [ERYTHROMYCIN] came in with a cytotoxicity in assay [1] of 6.32%. The “intracellular MIC” value in assay [2] was found to be 1.56 µM. Further, the MIC in assay [3] (LPM pH 5.8), in assay [3] (MHB) and in assay [3] (MOPS glucose minimal medium) was above 50 µM each time.

`C[C@]12CC[C@@H]3c4ccc(OC(=O)c5ccccc5)cc4CC[C@H]3[C@@H]1CC[C@@H]2O` [ESTRADIOL BENZOATE] showed a cytotoxicity in assay [1] of 20.3%. The “intracellular MIC” value in assay [2] is above 50 µM. Besides, the MIC in assay [3] (LPM pH 5.8), in assay [3] (MHB) and in assay [3] (MOPS glucose minimal medium) was above 50 µM each time.
